Laboratory results published in article PMC7278359, “Small molecule AX-024 reduces T cell proliferation independently of CD3ϵ/Nck1 interaction, which is governed by a domain swap in the Nck1-SH3.1 domain” (The Journal of Biological Chemistry, 2020).

Assays:
CD4 T cell proliferation = CD4 T cell proliferation by CFSE dilution, anti-CD3 stimulation; type: cell-based, human; settings: concentrations up to 1 μM; anti-CD3, CFSE dilution, day 4, 0.3% DMSO/0.3% PBS control
Procedure: (§1) Figure 2. […] CD4 T cell proliferation was assessed upon stimulation with anti-CD3ϵ by CFSE dilution as a measure for cellular proliferation, analyzed on day 4. For rapamycin and AX-024–treated cells, the dashed line indicates control proliferation at a DMSO concentration of 0.2%. For CD3ϵ-derived peptides 11Rwt, 11R085, and 11Rscr, the dashed line indicates control proliferation at 0.3% DMSO, 0.3% PBS. 11Rwt has sequence R11-G3-[…], 11R085 R11-G3-Q(dK)[…], and 11Rscr R11-G3-[…](dK)PQP. A polyarginine tag is used to enable cell penetration of the peptides ([10]). The gray boxes indicate concentrations of compound leading to decreased cell viability. These values should be disregarded. Binding of peptides 11Rwt and 11R085, but not 11Rscr, to Nck-SH3.1 was confirmed by NMR spectroscopy (Fig. S1). Asterisks, p < 0.05 as determined by a repeated-measure one-way analysis of variance with Holm–Sidak's multiple-comparison test to DMSO/PBS. Dotted lines, mean DMSO/PBS values. Error bars, S.D.
(§2) Fresh human peripheral blood mononuclear cells (PBMCs) from healthy donors (n = 4) were prepared from buffy coats. CD3^+ T cells were isolated by immunomagnetic separation (negative selection, StemCell, lot 18A87710), carboxyfluorescein succinimidyl ester (CFSE)-labeled, resuspended in StemCell Immunocult^TM-XF T cell expansion medium, and treated with compounds or vehicle for 2 h at room temperature. The isolated CD3^+ T cells were stained for CD3, CD4, and CD8, and their purity was assessed by flow cytometry. Cells were then cultured in a 96-well flat-bottomed plate (10^5 cells/well), precoated for 1 h at 37 °C with 0.2 μg·ml^−1 plate-bound anti-CD3 (clone OKT3, BioLegend). […] Cells were cultured in the presence of AX-024, rapamycin, peptide 11Rwt, peptide 11R85, peptide 11Rscr (derived from Ref. [11]; see below for sequences), or vehicle for 4 days. At the end of culture, cells were stained for viability, and CFSE dilution was assessed by flow cytometry (with gating on CD4 versus CD8).

CD4 T cell = experiment: Cytotoxicity / viability of CD4 T cells in proliferation assay; type: cell-based, human; settings: 4 days, decreased cell viability (gray boxes in Fig. 2)
Procedure: as §1, §2

CD8 T cell proliferation = CD8 T cell proliferation by CFSE dilution; type: cell-based, human; settings: concentrations low enough to avoid cytotoxic effects; data not shown
Procedure: as §2

Nck1-SH3.1 [1] = target: T1, Nck1-SH3.1 (Homo sapiens, UniProt P16333); experiment: NMR binding of poly-Arg CD3ϵ-derived peptides to Nck1-SH3.1; settings: Fig. S1
T1 construct: His10-Avi-TEV-Nck1-SH3.1 (residues 1–61, MM 11,847 Da) was biotinylated and immobilized via streptavidin; made in house; host or cells: Escherichia coli BL21 (DE3)
Procedure: NMR spectra were recorded on a Bruker 600-MHz Avance NEO spectrometer equipped with a cryogenic QCI probe head at 27 °C in 25 mM […], 150 mM NaCl. The Topspin 4.0 software (Bruker, Fällanden) was used for spectrometer operation and data processing. For ^1H ligand-observed measurements, a relaxation filtered pulse sequence utilizing a spinlock of 50 ms was applied. 1D spectra were acquired with 128 scans, a sweep width of 26 ppm, and an acquisition time of 2 s. 2D ^1H-^15N HSQC spectra with natural ^15N isotope abundance were recorded over 72 h with a spectral width of 16 ppm and 35 ppm in the proton and nitrogen dimensions, respectively, with 256 increments (complex) and 1000 scans per increment. A relaxation delay of 1 s was used between scans. For the DOSY measurements (reviewed in Ref. [51]), the Bruker pulse sequence ledbpgp2s with a diffusion delay of 50 ms and a gradient length of 600 μs was used. The gradient strength was varied from 5 to 95% to record 16 increments of 512 scans with a sweep width of 18 ppm and a relaxation delay of 1 s.
Samples for ligand-observed measurements were prepared in 25 mM sodium phosphate buffer, pH 6.5, 150 mM NaCl. One sample contained 50 μM AX-024, and the other contained 50 μM CD3ϵ peptide.

Nck1-SH3.1 [2] = target: T1, Nck1-SH3.1; experiment: SPR binding to immobilized Nck1-SH3.1; settings: SPR, peptide up to 200 μM, Nck1-SH3.1 1260 RU, single titration, qualitative
Procedure: SPR experiments were conducted on a T200 Biacore instrument (GE Healthcare, Uppsala, Sweden) at 20 °C in 10 mM HEPES/NaOH, pH 7.8, 150 mM NaCl, 1 mM TCEP. […] Streptavidin is immobilized on the CAP sensor by way of double-strand DNA formation. A ssDNA is covalently coupled to the sensor surface, and a complementary DNA strand, covalently linked to streptavidin, is hybridized. To regenerate the surface, the DNA duplex is dissociated by washing with high-ionic strength solution. […] The reference channel for binding studies contained the same streptavidin-coated surface blocked with biotin.
Five replicates were performed for each CD3ϵ concentration (Table S1), whereas for the qualitative assessment of the APVA variant, only a single titration was performed.
SPR equilibrium signals were corrected for the signal in the reference channel and buffer contributions. The resulting SPR amplitudes were plotted as a function of peptide concentration, and a simple binding equation describing a Langmuir adsorption isotherm was fit to the data (GraphPad Prism) to extract the equilibrium dissociation constant Kd. (Eq. 1) RU=RUmax·[peptide]/[peptide]+Kd

Substance	inhibition of CD4 T cell proliferation by peptides (CD4 T cell proliferation)	concentration at which peptides were cytotoxic (CD4 T cell)	effect on CD8 T cell proliferation (CD8 T cell proliferation)	binding to Nck1-SH3.1 by NMR (Nck1-SH3.1 [1])	fold weaker binding of APVA mutant than WT CD3ϵ peptide (Nck1-SH3.1 [2])
R11-G3-PKVRECPDYK(dK)PQP [11Rscr, scrambled peptide with the same composition as 11R085 but lacking the canonical PRS]	none of the peptides inhibited CD4 T cell proliferation	exceeding 6 μM	did not affect CD8 T cell proliferation	does not	–
RGQNKERPAPVANPDY-NH2 [APVA variant of CD3ϵ peptide]	–	–	–	–	~10 -fold
R11-G3-Q(dK)KECPPPVPKRDY [11R085, R11-G3-tagged cell-penetrating CD3ϵ-derived peptide]	none of the peptides inhibited CD4 T cell proliferation	exceeding 6 μM	did not affect CD8 T cell proliferation	bind to Nck1-SH3.1	–
R11-G3-RGYNKERPPPVPNPDY [11Rwt, R11-G3-tagged cell-penetrating CD3ϵ-derived peptide]	none of the peptides inhibited CD4 T cell proliferation	exceeding 6 μM	did not affect CD8 T cell proliferation	bind to Nck1-SH3.1	–
